Laboratory results as given in patent US4886785A, “Pyrimidine derivatives, pharmaceutical compositions and method of using same” (Hoffmann-La Roche Inc., priority 1986, dated 1989).

Target: herpes simplex virus type 2 (HSV-2) thymidine kinase (Human herpesvirus 2, UniProt P89446)
Assay: Inhibition of herpes simplex virus type 2 (HSV-2) thymidine kinase in vitro (3H-thymidine phosphorylation)
Type: biochemical
Settings: thymidine kinase extract, 0.3 μM 3H-thymidine, 5 mM ATP, pH 8, 37° C., 30 minutes
Experimental: In this test, the assay mixture contains 50 mM Tris-HCl, pH 8, 5 mM magnesium chloride, 5 mM ATP, 0.3 μM ^3 H-thymidine (50 Ci/mmol), suitably diluted thymidine kinase extract and various concentrations of compounds of formula I or tautomers in a total volume of 100 μl. Assays are incubated at 37° C. for 30 minutes and the reaction is terminated by immersion in a boiling water bath for 2 minutes. 85 μl aliquots from each assay are then dried on cellulose paper discs and the unphosphorylated ^3 H-thymidine is removed by washing in 4 mM ammonium formate. The radioactivity remaining bound to the discs is then measured by scintillation spectrophotometry. The degree of inhibition at each concentration of compound of formula I is expressed as a percentage of the control reaction (100%) after substracting a measured blank value which represents the amount of radioactivity bound to the disc from a reaction containing heat inactivated enzymes. The IC50 value, namely the concentration of compound of formula I or tautomer thereof which inhibits enzyme activity by 50%, is then calculated. The results obtained with representative compounds of formula I are compiled in the following Table: […]

herpes simplex virus type 2 (HSV-2) thymidine kinase, sequence (P89446 whole entry): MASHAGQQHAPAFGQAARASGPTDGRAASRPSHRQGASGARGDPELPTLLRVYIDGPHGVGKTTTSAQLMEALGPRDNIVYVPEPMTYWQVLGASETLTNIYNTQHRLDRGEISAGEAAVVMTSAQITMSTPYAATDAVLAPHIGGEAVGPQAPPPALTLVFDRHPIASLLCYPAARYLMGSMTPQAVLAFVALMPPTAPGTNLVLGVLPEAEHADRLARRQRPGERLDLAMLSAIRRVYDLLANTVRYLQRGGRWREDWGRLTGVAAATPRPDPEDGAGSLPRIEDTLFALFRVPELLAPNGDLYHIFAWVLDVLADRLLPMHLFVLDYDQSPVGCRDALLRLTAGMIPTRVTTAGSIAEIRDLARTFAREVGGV

IC50 [nM]	Structure (SMILES)
90	CCc1cn([C@H]2C[C@H](O)[C@@H](CNCCc3c(Cl)cccc3Cl)O2)c(=O)[nH]c1=O [Example 3b, 5'-[2-(2,6-dichlorophenyl)ethylamino]-2',5'-dideoxy-5-ethyluridine]
60	CCc1cn([C@H]2C[C@H](O)[C@@H](CNCc3cccc(Cl)c3Cl)O2)c(=O)[nH]c1=O [Example 4b, 5'-(2,3-dichlorobenzylamino)-2',5'-dideoxy-5-ethyluridine]
80	CCc1cn([C@H]2C[C@H](O)[C@@H](CNCc3c(Cl)cccc3Cl)O2)c(=O)[nH]c1=O [Example 4c, 5'-(2,6-dichlorobenzylamino)-2',5'-dideoxy-5-ethyluridine]
